The subject of series [1] is P. batsensis. Put plainly: Antibiofilm activity (inhibition of biofilm formation). The class given is cell-based, Pseudo-oceanicola batsensis DSM 15984. The settings on record: for inhibition at 0.98 µg/mL / inhibition at 1.95 µg/mL / inhibition at 3.91 µg/mL / inhibition at 7.81 µg/mL / inhibition at 15.6 µg/mL / inhibition at 31.25 µg/mL: 48 h; for inhibition at 15.6 µg/mL: 15.60 µg/mL. How it is done:
(§1) To assess antimicrofouling activity, we selected five marine bacterial species as models: Marinobacter hydrocarbonoclasticus DSM 8798 (ATCC 49840), C. marina DSM 4741, Phaeobacter inhibens DSM 17,395, Pseusooceanicola batsensis DSM 15,984, and Micrococcus luteus DSM 20030 (ATCC 4698) ([Michael et al., 2016]). These strains, sourced from DSMZ (Leibniz Institute DSMZ—German Collection of Microorganisms and Cell Cultures), were cultured in liquid marine broth (Carl Roth GmbH, Karlsruhe, Germany) with agitation at 180 rpm or on agar-supplemented marine broth. Incubation temperatures were set at 28°C for M. hydrocarbonoclasticus and Cobetia marina, 30°C for P. inhibens and P. batsensis, while M. luteus was maintained at 37°C in Brain Heart Infusion broth (BHI, Becton Dickinson, GmbH, Heidelberg, Germany) under similar agitation conditions.
The antibiofilm potential of compounds (1) and (2) against the five marine bacterial species was investigated in 96-well polystyrene flat-bottom microplates (Nunclon Delta Surface, Thermo Scientific, Roskilde, Denmark), as described previously ([Bauermeister et al., 2019]; [Pereira et al., 2020]). In the initial screening, bacterial overnight cultures were diluted to an OD600 of 0.2 and incubated statically at appropriate temperatures. The cultures were tested at 31.25, 15.60, 7.81, 3.91, 1.95, 0.98 μg/mL concentrations (2-fold serial dilutions) of compounds (1) and (2), solubilized in DMSO, or left untreated. After 24 h (M. hydrocarbonoclasticus, C. marina) or 48 h (P. batsensis, P. inhibens, M. luteus) incubation, OD600 was measured. The planktonic cells and media were discarded, and the wells were washed twice with deionized water. Biofilms were fixed, stained, and quantified by measuring the OD600 after solubilization with acetic acid. Biofilm inhibition percentages were calculated relative to untreated bacterial species, using DMSO as a negative control and CuSO4 (0.16 μg/mL), as a positive control. All assays were performed in triplicate, and the results represent the mean and standard error of the mean (SEM). Statistical analysis was conducted using GraphPad Prism 8.0.2, employing one-way ANOVA followed by Dunnett’s multiple comparisons test against the negative control.

Series [2] concerns P. batsensis. Nature of the series: Antibacterial activity (growth inhibition, OD600). The class given is cell-based, Pseudo-oceanicola batsensis DSM 15984. The settings on record: 48 h; for inhibition at 15.6 µg/mL: 15.60 µg/mL. How it is done: as §1
The antibacterial efficacy of compounds (1) and (2) was assessed in 96-well polystyrene flat-bottom microplates (Nunclon Delta Surface, Thermo Scientific, Roskilde, Denmark) following established procedures ([Bauermeister et al., 2019]). In the initial screening, bacterial overnight cultures were diluted to an optical density (OD600nm) of 0.2 and incubated statically at appropriate temperatures. The cultures were treated with the following final concentrations per well: 31.25, 15.60, 7.81, 3.91, 1.95, and 0.98 μg/mL (2-fold serial dilutions) of the compounds, solubilized in DMSO, or left untreated. After 24 h (M. hydrocarbonoclasticus, C. marina) or 48 h (P. batsensis, P. inhibens, M. luteus) incubation, optical density at 600 nm (OD600) was measured using a Molecular Devices Spectra Max 190. Growth inhibition percentages were calculated relatively to untreated bacterial species, using DMSO as a negative control. CuSO4 (0.16 μg/mL), a recognized antifouling agent, was used as positive control. All assays were conducted in triplicate, and the results represent the mean and standard error of the mean (SEM). Statistical analysis was carried out using GraphPad Prism 8.0.2 (San Diego, CA, United States), employing one-way ANOVA followed by Dunnett’s multiple comparisons test against the negative control.

The nature of series [3]: Mussel larvae acute toxicity (mortality). The settings on record: Mytilus galloprovincialis, in vivo, other: waterborne exposure in 24-well plates; 15 h acute exposure. How it is done:
The in vivo antimacrofouling activity of compounds (1) and (2) was evaluated against mussel M. galloprovincialis adhesive larvae (plantigrades) in an acute bioassay. Juvenile mussel aggregates were harvested from the intertidal rocky shore during low spring tides at Memória beach, Matosinhos, Portugal. In the laboratory, precisely before the bioassays, mussel plantigrade larvae were meticulously screened and isolated from the juvenile aggregates using a binocular microscope (Olympus SZX2-ILLT, Hamburg, Germany). The isolated larvae were then washed with filtered seawater to eliminate organic debris, and competent plantigrade larvae, characterized by foot exploratory behavior, were selected for the exposure bioassays, following established protocols ([Almeida et al., 2017]; [Almeida et al., 2020]; [Antunes et al., 2019]; [Mabrouk et al., 2020]). Plantigrades were exposed in 24-well polystyrene plates for 15 h in darkness at 18°C. DMSO served as the solvent for the testing compounds in stock and working solutions. The DMSO concentration in the tested solutions was consistently maintained at 0.1%. […] The anti-settlement bioactivity was assessed based on the presence or absence of fixed byssal threads produced by each individual larva for all tested conditions. […] EC50 values for each compound were calculated using Probit regression analysis. […]

For orientation: inhibition means the change of the read-out against control, counted positive when it falls. A lower inhibition goes with a weak effect. What is called LC50 is the concentration lethal to half of the exposed cells or organisms.

Each structure is given as a SMILES string.

For the compound `CC1=CCC[C@@H](C)[C@]1(C)CC[C@@]1(C)c2c(O)cc3c(c2O[C@@H]1C)C(=O)C(C)=C(O)C3=O` [compound 2, neomarinone], in the series with P. batsensis [1], the inhibition at 0.98 µg/mL worked out at 11.7 ± 6.2%, testing at 1.95 µg/mL gave an inhibition of 13.9 ± 5.7%, the inhibition at 3.91 µg/mL was found to be 19.4 ± 4% and testing at 7.81 µg/mL gave an inhibition of 26.3 ± 5.9%. In the series with P. batsensis [1], this compound came in with an inhibition at 15.6 µg/mL of 34.9 ± 4.8% and an inhibition at 31.25 µg/mL of 40.7 ± 4.7%. Moreover, in the series with P. batsensis [1] (0.98-31.25 µg/mL tested), the “Biofilm inhibition, up to (highest over tested concentrations) P. batsensis” value is recorded as “up to 40%”. For the same compound, in the series with P. batsensis [2] (0.98 µg/mL), the “Growth inhibition (%) P. batsensis” value is on record as “N.I”. Besides, in the series on P. batsensis [2], the inhibition at 1.95 µg/mL stood at 0.3 ± 0.5%, the inhibition at 3.91 µg/mL turned out to be 4.2 ± 0.3%, at 7.81 µg/mL the inhibition was 0% and at 15.6 µg/mL the inhibition was 0.9 ± 0.4%. In addition, in the series on P. batsensis [2], testing at 31.25 µg/mL gave an inhibition of 11.1 ± 0.4%. Besides, the median lethal concentration (LC50) at 15 h in series [3] was > 4 µg/mL.
In the series with P. batsensis [1], `CC1=CCC[C@@H](C)[C@]1(C)CC[C@@]1(C)c2c(O)cc3c(c2O[C@@H]1C)C(=O)C=C(CO)C3=O` (relative stereo) [compound 1, madeirone] returned an inhibition at 0.98 µg/mL of 10.8 ± 1.7%, an inhibition at 1.95 µg/mL of 17.9 ± 2.4%, an inhibition at 3.91 µg/mL of 24.9 ± 2.9% and an inhibition at 7.81 µg/mL of 34.8 ± 2.7%. In addition, in the series with P. batsensis [1], the inhibition at 15.6 µg/mL came out at 49.1 ± 0.7% and at 31.25 µg/mL the inhibition was 59.2 ± 0.4%. The inhibition at 0.98 µg/mL in the series with P. batsensis [2] (0.98 µg/mL) came out at 20.7 ± 1.1%. In the series on P. batsensis [2], the inhibition at 1.95 µg/mL came to 26.6 ± 0.8%, 3.91 µg/mL produced 31 ± 0.7% inhibition, the inhibition at 7.81 µg/mL amounted to 35.9 ± 0.5% and the inhibition at 15.6 µg/mL was > 40%. The inhibition at 31.25 µg/mL in the series with P. batsensis [2] was > 40%. The LC50 at 15 h in series [3] is > 10 µg/mL.

Values taken from article PMC11306024, “Novel metabolite madeirone and neomarinone extracted from Streptomyces aculeoletus as marine antibiofilm and antifouling agents” (Frontiers in Chemistry, 2024).
